Measured values taken from US20170042929A9, “Methods of Treating Neurological Diseases” (priority 2012, published 2017).
“Also recorded” adds a separate entry of the source.

Tests used:
[1] = tested on: isolated mouse hippocampus; assay: Febrile seizure-like events (FSLE) in hyperthermia, extracellular recording in isolated hippocampus; type: cell-based; conditions: CPA added immediately after the first FSLE, P18 isolated hippocampus
Procedure: FIG. 9A: unfiltered extracellular recording traces (DC mode) of the typical repeated FSLEs in P18 isolated mouse hippocampus. […] Immediately after that CPA was added.
Febrile seizure-like events (FSLE) emerge and terminate as sub-threshold bursts under conditions of hyperthermia at a temperature of about 39° C. in (FIGS. 6A-6C) while spontaneous inhibitory postsynaptic currents (IPSCs) evident at 32° C. (FIG. 6D) gradually diminish as the temperature increases (FIG. 6E). In hippocampal slices FSLEs emerged on the average at 38.5° C. in tissue from HET mice and at 40.5° C. in tissue from WT mice (FIGS. 7A-7B) where the FSLE durations was almost twice as long in HET tissue (FIG. 7C).

[2] = tested on: CA1 pyramidal cells of HET SMEI mice; assay: sEPSC and sIPSC whole-cell recordings after repeated CPA treatment; type: in vivo, mouse; conditions: repeated CPA treatment P11-P20, HET+CPA vs HET+vehicle
Procedure: For electrical whole-cell voltage-clamp recordings, borosilicate glass micropipettes (4-7 MΩ) were used containing (in mM): 116 Cesium gluconate, 6 KCl, 0.5 EGTA, 20 HEPES, 10 phosphocreatine, 0.3 NaGTP, 2 NaCl, 4 MgATP, and 0.3% Neurobiotin (pH 7.25, 295 mOsm) and 5 mM QX-314 (fast voltage-gated conductance blocker). Spontaneous inhibitory postsynaptic currents (IPSCs) and EPSCs were recorded in CA1 pyramidal cells. sIPSCs were recorded at −80 mV in the presence of APV (100 μM) and CNQX (40 μM). sEPSCs were recorded at −70 mV in the presence of inhibitory synaptic transmission blocker picrotoxin (50 μM). Amplitude and frequency of sEPSCs and sIPSCs were measured and compared between WT and HET. For IPSC calculations, activity was studied in three 20 second segments (twenty seconds apart) for each cell (N=8 HET, 6WT). Since EPSCs have lower frequency, two minute long segments were used for their analysis (N=6). Cumulative distribution of the amplitudes and inter-event interval (frequency) were plotted in Prism software. t-test analysis was used to compare IPSCs and EPSCs in HET and WT tissue. All recordings were performed at 32° C. temperature. […]

[3] = tested on: SMEI mice (SCN1A HET); assay: Chronic CPA treatment (P11-P20), hyperthermia-induced seizures in vivo; design: species or system mouse
Procedure: (§1) The model of SMEI used in these studies is caused by a knock-in nonsense substitution (CgG to TgA in exon 21) made within a loop between segments 5 and 6. Transgenic mice were provided by Drs. K. Yamakawa and I. Ogiwara (RIKEN, Japan (14)). All of the experiments on the mice (C57BL/6/129) involved in this project were performed in accordance with animal protocols approved by the Institutional Animal Care and Use Committee of the University of Houston. Heterozygous (HET) and wild-type (WT) mice were used.
The A1R agonist CPA has an acute effect on the control of hyperexcitable neural network, hyperthermia-induced seizure in vitro and in vivo. To investigate if the chronic treatment of mSMEI with CPA can have long-term effects on the rewiring of the neural circuit and FS threshold activity, CPA was injected into the SMEI mice twice a day for continuous 10 days during the critical activity-dependent period of development (P11-P20), and the effects were determined 24 hours and 10 days after the last injection.

[4] = tested on: hippocampal CA1 circuit of HET (SCN1A mSMEI) tissue; assay: Voltage-sensitive dye imaging (VSDI) of evoked neural activity propagation, FWHM; type: cell-based, mouse; conditions: for abnormally wide circuit excitation, neural activity map (dF/Fmax) / spatial extent of neural signal propagation: 50 nM CPA; for abnormally wide circuit excitation, neural activity map (dF/Fmax): HET animal P19; for spatial extent of neural signal propagation: HET tissue
Procedure: (§2) Mice (P16-22) were anesthetized with isofluorane, decapitated, and the brains immediately removed. Transverse hippocampal sections (350 μm thickness) were cut in cold dissection solution (in mM: 2.6 KCl, 1.23 NaH2PO4, 24 NaHCO3, 0.1 CaCl2, 2 MgCl2, 205 sucrose, and 10 glucose) using a vibratome and were incubated for half an hour in normal artificial cerebrospinal fluid (ACSF; pH 7.3, 30° C.) containing (in mM) 130 NaCl, 1.2 MgSO4, 3.5 KCl, 1.2 CaCl2, 10 glucose, 2.5 NaH2PO4, 24 NaHCO3 aerated with 95% O2-5% CO2. After the incubation, slices were stained with Di-4ANNEPS (final dye concentration is 0.05 mg/ml) and left to recover for an additional hour at 30° C. (23). The slices were transferred to a submersion recording chamber (Warner Instr.) and continuously perfused (2 ml/min, at 30° C.) with the oxygenated ACSF.
A combination of in vitro electrophysiology (extracellular field potential recording and whole-cell patch clamp recordings) and fast voltage-sensitive dye imaging (VSDI) was used. All electrical recordings were performed using MCC 700 amplifiers (Axon Instruments). Electrical data was acquired at 4 KHz, digitized at 10 KHz using a Digidata DAC board and pClamp software. Optical data were recorded at 250 Hz with MiCam 02 (192×126 pixels, SciMedia USA).
(§3) To characterize excitatory neural circuit activity, stimulating electrodes (concentric bipolar metal electrodes, 200 μm in diameter (FHC)) were placed on the Shaffer collaterals. fEPSP recordings were performed in hippocampal slices concurrently with the VSDI (FIGS. 1A-1E). Extracellular recording electrodes ([…], 0.9% saline) were placed in the CA1 radiatum layer. To monitor Di-4ANNEPS signals, the slices were illuminated either with Halogen (150 W; excitation 522-550 nm; emission—580 nm; dichroic—565 nm).
(§4) To elicit short-term synaptic plasticity, Schaeffer collaterals were stimulated at 40 Hz frequency using 10 pulse (0.2 msec) trains. 40 Hz falls within the gamma frequency range and stimulation was repeated every 15 seconds with stimulus amplitude was set at the half of maximal fEPSP amplitude. fEPSP and VSDI optical data trials were synchronized.
Optical and electrical data were analyzed using Brain Vision and pClamp softwares. To increase signal to noise ratio, data analysis in individual slices and during pharmacological manipulations was performed on the averages of fifteen files (electrical and optical). Standard electrophysiological analysis techniques were used to analyze fEPSP, EPSC, and IPSC characteristics. For optical analysis, 1060 msec of data were fitted with an approximately Gaussian curve (25) and full width at half maximal (FWHM) values over the distance of 950 micrometers from the stimulating electrode toward subicullum were calculated using BrainVision (SciMedia). FWHM here quantifies distance of neuronal signal propagation (or decay). FWHM calculations along the orthodromic neural activity propagation trajectory included 15 frames before and 194 frames after the 40 Hz train stimulation, and was spanning over the evoked signal as shown in FIGS. 4A-4D. All results are reported as grouped averages with standard error of the mean. Results from WT and HET, or treated versus untreated groups were compared using unpaired and paired t-tests, respectfully. A p<0.05 was regarded as statistically significant value.

[5] = tested on: SMEI mice (SCN1A HET); assay: Acute CPA treatment, hyperthermia-induced seizures in vivo; design: species or system mouse
Procedure: as §1

[6] = tested on: hippocampal area CA1 of HET (SCN1A mSMEI) tissue; assay: Evoked fEPSP extracellular recordings in hippocampal slices, Schaeffer collateral stimulation (single pulse and 40 Hz trains); type: cell-based, mouse; conditions: for population spike evoked by very low stimulation intensity: HET CA1; for fEPSP amplitude / synaptic excitability in HET tissue: HET hippocampus, ten pulse 40 Hz stimulation
Procedure: as §2, §3
Input-output (I-O) characteristics of fEPSPs were calculated using the same intensities of stimulation and incrementally (0.05 mA) raising them until the maximal responses or population spikes were obtained. 1-0 calculations were performed in stained and unstained slices to rule out a possible modulation of Di-4ANEPPS on GABA receptors (24). The responses from stained and unstained slices were not statistically different and were pooled together for the final analysis.
as §4
To modulate hippocampal hyperexcitability A1R agonist N6-cyclopentyladenosine (CPA) was used. N6-cyclopentyladenosine dissolved in DMSO was added to the bath ACSF solution. N6-cyclopentyladenosine took effect within 2 minutes of its application. 10 and 1 μM and 500, 100, 50, and 10 nM concentrations of CPA were tested. Since N6-cyclopentyladenosine acts through G-protein linked mechanisms, the washout of N6-cyclopentyladenosine was not possible in the current experiments. […] A1R […] DPCPX concentration was 200 nM. All drugs and dye were obtained from Sigma-Aldrich.

[7] = tested on: SMEI seizures; conditions: previously tested; cited from earlier work
[8] = 50 nM CPA, listed as N6-cyclopentyladenosine

With `OC[C@H]1O[C@@H](n2cnc3c(NC4CCCC4)ncnc32)[C@H](O)[C@@H]1O` [CPA, N6-cyclopentyladenosine] the “epileptogenic activity (repeated FSLEs) in hyperthermia” value [1] was “blocked epileptogenic activity in hyperthermia; also recorded: no repetitive FSLEs formed”, the sIPSC amplitude [2] was “does not cause significant change in sIPSCs; also recorded: no significant difference” and the sIPSC interval [2] was “does not cause significant change in sIPSCs; also recorded: no significant difference”. The seizure incidence ([3]; chronic CPA twice a day P11-P20, 24 hours after the last treatment, vehicle 83.3%) was 53%, the seizure incidence ([3]; chronic CPA twice a day P11-P20, 10 days after the last treatment, vehicle 75%) was 43% and the seizure duration ([3]; chronic CPA, 24 hours after the last treatment, vehicle 3.980±0.6651) was 1.424±0.6904. For the same compound, the seizure latency ([3]; chronic CPA, 24 hours after the last treatment, vehicle 8.080±1.772) was 11.25±1.140, the “abnormally wide circuit excitation, neural activity map (dF/Fmax)” value [4] was “reduced significantly; also recorded: reduced the abnormally wide circuit excitation” and the “abnormally wide circuit excitation, neural activity map (dF/Fmax)” value ([4]; listed as N6-cyclopentyladenosine) was “abnormally wide CA1 circuit activation was confined; also recorded: reduced the abnormally wide circuit excitation”. The “spatial extent of neural signal propagation” value ([4]; 40 Hz train) was “significantly reduced the spatial extent of neural signal propagation”, the “spatial extent of neural signal propagation” value ([4]; 40 Hz train, listed as N6-cyclopentyladenosine) was “significantly reduced the spatial extent of neural signal propagation; also recorded: reduced propagation of the evoked signal” and the “FWHM, spread of the evoked activity” value ([4]; HET slices + 50 nM CPA, 40 Hz train, untreated HET 591±106 μm, N=6 slices) was 491±106 μm. It also gave a seizure duration ([5]; acute CPA 15 minutes before hyperthermia, vehicle 5.91±1.17 min) of 2.26 ± 0.43 min, a seizure latency ([5]; acute CPA 15 minutes before hyperthermia, vehicle 8.19±0.95 min) of 11.68 ± 0.70 min and a seizure duration ([5]; acute CPA i.p. 15 minutes prior, HET+saline 5.91±1.17 (figure legend)) of 2.26±0.43. For the same compound, the seizure latency ([5]; acute CPA i.p. 15 minutes prior, HET+saline 8.19±0.95 (figure legend)) was 11.68±0.70, the “population spike evoked by very low stimulation intensity” value ([6]; 50 nM CPA) was “reduced this spike into a field EPSP response” and the “population spike evoked by very low stimulation intensity” value [6, 8] was “reduced this spike into a fEPSP response; also recorded: effectively reduced this exaggerated response into fEPSP”. For the same compound, the “fEPSP amplitude / synaptic excitability in HET tissue” value ([6]; 50 nM CPA) was “significantly reduced fEPSP; also recorded: significantly reduced hippocampal circuit hyperexcitability without blocking excitatory synaptic transmission”, the “fEPSP amplitude / synaptic excitability in HET tissue” value [6, 8] was “significantly reduced fEPSP trains; also recorded: significantly reducing synaptic excitability in HET tissues, without blocking synaptic transmission” and the “short-term plasticity (STP), fEPSP amplitude ratios pulses #2-10 to #1” value ([6]; 50 nM CPA, HET vs HET+CPA, 40 Hz train) was “effected the short-term plasticity; also recorded: all statistically different”. For the same compound, the fEPSPs ([6]; 1 μM N6-cyclopentyladenosine in bath ACSF) was “completely eliminated fEPSPs”, the fEPSPs ([6]; 10 μM N6-cyclopentyladenosine in bath ACSF) was “completely eliminated fEPSPs” and the “time until N6-cyclopentyladenosine took effect after its application” value ([6]; bath application in ACSF) was at most 2 min.

In the case of `CCCn1c(=O)c2[nH]c(C3CCCC3)nc2n(CCC)c1=O` [DPCPX], the “effect of DPCPX on the CPA-induced decrease of fEPSP amplitude” value ([6]; DPCPX 200 nM added to ACSF with 50 nM CPA) was “prevented N6-cyclopentyladenosine to decrease fEPSP amplitude; also recorded: N6-cyclopentyladenosine was ineffective at reducing fEPSP”.

In the case of `NC(=O)N1c2ccccc2C=Cc2ccccc21` [carbamazepine], the “efficacy against SMEI seizures” value [7] is listed as “none of these agents worked reliably”.

In the case of `Nc1nnc(-c2cccc(Cl)c2Cl)c(N)n1` [lamotrigine], the “efficacy against SMEI seizures” value [7] is given as “none of these agents worked reliably”.
